Like-named read-outs stand apart in the source and are kept apart here.
How the values were obtained:
[1] = molecular target: T1, hFPR2 (Homo sapiens, UniProt P25090); assay: ERK1/2 phosphorylation (AlphaScreen SureFire) in hFPR2-FlpIn-CHO cells; assay type: cell-based; details: for Time of maximal ERK1/2 phosphorylation in hFPR2-CHO cells: 10 μM, pilot timecourse; for ΔLog(τ/KA), ERK1/2 phosphorylation, hFPR2-Flpln-CHO: normalized transduction coefficient, reference agonist Cmpd43; for Log(τ/KA), ERK1/2 phosphorylation, hFPR2-Flpln-CHO: transduction coefficient; for EC50: read-out: pEC50, ERK1/2 phosphorylation, hFPR2-Flpln-CHO (converted)
T1 construct: expressed in transfected cells
T1 sequence (P25090 1-351): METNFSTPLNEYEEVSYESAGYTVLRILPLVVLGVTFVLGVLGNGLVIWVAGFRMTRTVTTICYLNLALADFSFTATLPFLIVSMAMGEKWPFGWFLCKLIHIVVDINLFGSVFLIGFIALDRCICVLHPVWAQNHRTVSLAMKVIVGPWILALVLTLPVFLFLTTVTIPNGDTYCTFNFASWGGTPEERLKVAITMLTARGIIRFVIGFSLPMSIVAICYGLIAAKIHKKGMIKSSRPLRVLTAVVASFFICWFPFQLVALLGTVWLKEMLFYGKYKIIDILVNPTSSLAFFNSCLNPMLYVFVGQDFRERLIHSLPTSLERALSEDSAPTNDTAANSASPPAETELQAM
Source text: cDNDA construct and generation of stable cell lines: cDNA in pcDNA3.1^+ encoding the human formyl peptide receptors (FPR) subtypes, hFPR1, hFPR2 and hFPR3 was obtained from Invitrogen. The sequences for 3 hFPR receptors were amplified by PCR and cloned into the Gateway entry vector, pDONR202™, using the BP clonase enzyme mix, according to the manufactures' instructions (Invitrogen Inc, Carlsbad, Calif., USA). All hFPR receptors constructs in pDONR201™ were subsequently transfected into the pEF5/FRT/V5/dest vector using the LR clonase enzyme mix (Invitrogen). Receptor constructs (pEF5/FRT/V5/dest) were used to transfect FIp-In CHO cells as described previously (Valant C et al., PNAS, 2014). Cells were selected using 500 μg/mL hydromycin to generate cell lines stably expressing each receptor construct. Cells were maintained and cultured in high glucose DMEM supplemented with 10% FBS, 16 mM HEPES and 500 μg/mL hydromycin at 37° C. under a humidified atmosphere containing 5% CO2.
In the various assays described below, cells were plated into 96-well transparent cell culture plates at 4×10^4 cells per well, cultured overnight in serum-free media at 37° C. in 5% CO2.
Measurement of extracellular signal regulated kinase 1 and 2 phosphorylation (pERK1/2): Initial ERK1/2 phosphorylation at Thr202/Tyr204 time-course experiments were performed to determine the time at which ERK1/2 phosphorylation was maximal after stimulation by each agonist. Cells were seeded onto transparent 96-well cell culture plates at 4×10^4 cells per well. After 6 h, cells were washed once with PBS, and then incubated in serum-free DMEM overnight, to allow FBS-stimulated phosphorylated ERK1/2 levels to subside. […] 10% (v/v) FBS was used as a positive control, with vehicle controls also included. The reaction was terminated by removal of study drugs and lysis of cells with 100 μL of SureFire lysis buffer (TGR Biosciences). Cell were lysed in SureFire lysis buffer and transferred to 384-well opaque proxiplates. Under low-light conditions, a 1:120 (v:v) dilution of AlphaScreen beads (both acceptor and donor):Surefire reaction buffer was prepared, which was mixed with the activation buffer in a ratio of 6:1 (v:v), respectively. Plates were incubated in the dark at 37° C. for 1 h before the fluorescence signal was measured by a Fusion-α plate reader (PerkinElmer Life and Analytical Sciences, Foster city, CA, USA) with standard AlphaScreen settings. Data were normalized to the maximal response elicited by 10% (v/v) FBS at the same time point.
Receptor mediated pERK1/2 levels were determined using the AlphaScreen™ ERK1/2 SureFire™ kit, as described previously (Keov, P et al., 2014). For all experiments, 10% FBS was used as internal positive control to stimulate pERK1/2, and which the maximum responses were used for normalization of data, whilst vehicle was used as negative control.
Data analysis: All data were analysed using GraphPad Prism 6.0 (GraphPad Software, San Deigo, Calif., USA). Where appropriate, concentration-response curves were fitted to derive the maximal agonist effect (Emax), and the ligand potency estimate (pEC50), where Emax is the maximal possible response of the system (not the agonist), basal is the basal level of response in the absence of agonist, and pEC50 is the negative logarithm of the agonist concentration that gives a response halfway between Emax and basal.
In the present study, FIp-IN CHO cells and Gateway plasmid were obtained from Invitrogen Inc (Carlsbad, Calif., USA). The sequences for all 3 known human FPRs (hFPR1, hFPR2 and hFPR3) were amplified by PCR and cloned into the Gateway entry vector, pDONR202TM, using the BP clonase enzyme mix, according to the manufacturers' instructions. The hFPR pDONR201TM constructs were subsequently transfected into the pEF5/FRT/V5/dest vector using the LR clonase enzyme mix (Invitrogen).

[2] = test system: mFpr1, mFpr2 expression in AMCF; assay: Fpr gene expression in adult mouse cardiac fibroblasts (real-time PCR); assay type: cell-based; details: 10 μM, 24 h incubation, TGF-β
Description: AMCFs were starved overnight in serum-free DMEM prior to incubation with the pro-fibrotic stimulus transforming growth factor TGF-β (10 ng/ml) for 24 h at 37° C. FPR agonists Cmpd17b, Cmpd43 (both 10 μM) or vehicle were present 30 min prior to TGF-β. At the end of 24 h stimulation, RNA was extracted and real-time PCR performed to determine the relative gene expression of CTGF and IL-1β, relative to housekeeping gene 18S, as described previously (5). Relative gene expression of mouse Fprs (mFpr1 and mFpr2, expressed as the threshold cycle number Ct subtracted from the maximum cycle number utilized, 40) was also determined at the end of 24 h stimulation.

[3] = Table 2, percentage of ERK1/2 phosphorylation elicited by 10% FBS, read-out: Emax (%), ERK1/2 phosphorylation, hFPR2-Flpln-CHO
[4] = Table 8, percent of response elicited by 10% FBS, read-out: Emax, ERK1/2 phosphorylation, hFPR2-Flpln-CHO

Row | Compound | Time of maximal ERK1/2 phosphorylation in hFPR2-CHO cells [1] [min] | Emax [1, 3] [%] | ΔLog(τ/KA), ERK1/2 phosphorylation, hFPR2-Flpln-CHO ([1]; Table 8) | Emax [1, 4] [%] | Log(τ/KA), ERK1/2 phosphorylation, hFPR2-Flpln-CHO ([1]; Table 8) | AMCF expression of mFpr1 [2] | EC50 ([1]; Table 2) [nM] | EC50 ([1]; Table 8) [nM] | AMCF expression of mFpr2 [2]
1 | CSCC[C@H](NC=O)C(=O)N[C@@H](CC(C)C)C(=O)N[C@@H](Cc1ccccc1)C(=O)O [fMLP, N-formyl-Met-Leu-Phe] | 5 | 68 ± 11 | −2.3 ± 0.2 | 68 ± 11 | 5.4 ± 0.1 |  |  |  | 
2 | CC(C)C1C(NC(=O)Nc2ccc(Cl)cc2)C(=O)N(c2ccccc2)N1C (stereo not drawn) [BIDI-002] | 5 | 95 ± 4 | 0.0 | 95 ± 4 | 7.7 ± 0.2 | restored | 55 | 50.1 | 
3 | COc1cccc(Cc2cc(C)nn(C(C)C(=O)Nc3ccc(Br)cc3)c2=O)c1 (stereo not drawn) [BIDI-001, N-(4-bromophenyl)-2-[5-(3-methoxybenzyl)-3-methyl-6-oxo-6H-pyridazin-1-yl]-propionamide] |  |  |  |  |  | did not significantly influence |  |  | did not significantly influence
